Earlier results as cited in patent US11053230B2, “3-hydroxy-imidazolidin-4-one compounds as inhibitors of indoleamine 2,3-dioxygenase” (Netherlands Translational Research Center B.V., priority 2017, dated 2021).

How the values were obtained:
[1] = test system: IDO1 expressed in mouse tumor cells; settings: pre-immunized mice; cited from earlier work
lung carcinoma = settings: syngeneic mouse lung carcinoma model and transgenic mouse model; cited from earlier work
[2] = test system: melanoma and glioblastoma; settings: mouse tumor models for melanoma and glioblastoma; cited from earlier work
influenza virus = settings: influenza virus-infected mice; cited from earlier work
Leishmania major = settings: in vivo; cited from earlier work
colon cancer = settings: mouse model for colon cancer; cited from earlier work
[3] = biological target: tryptophan 2,3-dioxygenase (TDO) (Homo sapiens, UniProt P48775); settings: biochemical assays; cited from earlier work
melanoma = settings: mouse model for melanoma; cited from earlier work
[4] = randomized, open-label, phase 2, ovarian cancer patients; cited from earlier work
plasma kynurenine levels = settings: phase 1, advanced solid malignancies, all doses; cited from earlier work

tryptophan 2,3-dioxygenase (TDO), sequence (P48775 whole entry, species assumed): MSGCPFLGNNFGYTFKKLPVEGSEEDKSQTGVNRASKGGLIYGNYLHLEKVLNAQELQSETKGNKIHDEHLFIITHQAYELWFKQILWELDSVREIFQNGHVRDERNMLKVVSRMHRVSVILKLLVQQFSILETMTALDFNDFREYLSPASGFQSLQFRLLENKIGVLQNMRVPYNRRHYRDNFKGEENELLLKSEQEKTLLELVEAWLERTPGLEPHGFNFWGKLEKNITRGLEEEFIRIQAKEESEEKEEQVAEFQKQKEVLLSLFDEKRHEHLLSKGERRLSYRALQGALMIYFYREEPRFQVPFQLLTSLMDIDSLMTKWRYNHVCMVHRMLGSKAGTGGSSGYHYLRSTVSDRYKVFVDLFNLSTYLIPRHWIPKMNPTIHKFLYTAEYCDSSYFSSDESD

Compound | reversal of IDO1-mediated prevention of tumor cell rejection [1] | efficacy of a cancer vaccine in combination (lung carcinoma) | efficacy of PD-1 and CTLA4 antibodies in combination [2] | T cell response against the virus (influenza virus) | parasite burden (Leishmania major) | tumor growth (colon cancer) | inhibition of TDO activity [3] | tumor growth (melanoma) | tolerability [4] | plasma kynurenine levels (plasma kynurenine levels)
Cn1cc(C[C@H](N)C(=O)O)c2ccccc21 [Example 1-MT, 1-methyl-L-tryptophan] | this effect could be reverted | increased the efficacy of a cancer vaccine | increased the efficacy of antibodies | enhanced T cell response against the virus | reduced the parasite burden | – | – | – | – | –
Nc1nonc1C(=NO)Nc1ccc(F)c(Cl)c1 [compound 51, 4-amino-N-(3-chloro-4-fluorophenyl)-N′-hydroxy-1,2,5-oxadiazole-3-carboximidamide] | – | – | – | – | – | reduction of tumor growth | inhibit the activity of tryptophan 2,3-dioxygenase (TDO) | reduction of tumor growth | – | –
NS(=O)(=O)NCCNc1nonc1C(=NO)Nc1ccc(F)c(Br)c1 [epacadostat] | – | – | – | – | – | further reduction of tumor growth | – | – | generally well tolerated | significant dose-dependent reductions
